Measurements published in patent publication US8452543B2, “High throughput screening for antimicrobial dosing regimens” (priority 2005, dated 2013).
Converted amounts (≈) assume the structure as drawn. Like-named read-outs stand apart in the source and are kept apart here.

Legend:
[1] = test system: P. aeruginosa PA 27853 and resistant isolates MR1, MR2, MR3; experiment: microbe, parasite or virus in culture; type: cell-based, Pseudomonas aeruginosa; settings: Pseudomonas aeruginosa
Description: (§1) Minimum inhibitory concentration (MIC)/minimum bactericidal concentration (MBC) were determined in Ca-MHB using a modified macrobroth dilution method as described by the CLSI (10). The final concentration of bacteria in each macrobroth dilution tube was approximately 5×10^5 cfu/ml of Ca-MHB. Serial twofold dilutions of meropenem were used. […] Samples (50 μl) from clear tubes and the cloudy tube with the highest drug concentration were plated on Mueller-Hinton agar (MHA) plates (Hardy Diagnostics, Santa Maria, Calif.). […] Drug carry-over effect was assessed by visual inspection of the distribution of colonies on media plates. The studies were conducted in duplicate and repeated at least once on a separate day.

[2] = test system: P. aeruginosa PA 27853 and resistant isolates MR1, MR2, MR3; experiment: microbe, parasite or virus in culture; type: cell-based; settings: Pseudomonas aeruginosa, Etest
[3] = test system: amikacin resistant A. baumannii isolates; experiment: Resistance confirmation, repeat susceptibility testing, amikacin; type: cell-based, Acinetobacter baumannii; settings: for cross-resistance: amikacin resistant isolates
Description: The media plates were incubated at 35° C. for up to 24 (total population) and 72 hours (sub-populations with reduced susceptibility), then bacterial density from each sample was enumerated visually. The theoretical lower limit of detection was 400 CFU/ml.

[4] = test system: A. baumannii ATCC BAA 747; experiment: MIC/MBC, modified macrobroth dilution; type: cell-based; settings: Acinetobacter baumannii, BAA747; A. baumannii isolate (AB BAA 747)
Description: as §1, with “The” for “Minimum inhibitory concentration (MIC)/minimum bactericidal concentration (MBC) were determined in Ca-MHB using a modified macrobroth dilution method as described by the CLSI (10). The”

[5] = test system: A. baumannii ATCC BAA 747; experiment: Time-kill studies and best-fit model, amikacin; type: cell-based, Acinetobacter baumannii
[6] = test system: levofloxacin resistant P. aeruginosa isolates; experiment: Susceptibility of levofloxacin resistant isolates, screening panel; type: cell-based, Pseudomonas aeruginosa
P. aeruginosa ATCC 27853 [7] = experiment: MIC/MBC, modified macrobroth dilution; type: cell-based, Pseudomonas aeruginosa; settings: P. aeruginosa ATCC 27853
Description: as §1, with “The” for “Minimum inhibitory concentration (MIC)/minimum bactericidal concentration (MBC) were determined in Ca-MHB using a modified macrobroth dilution method as described by the CLSI (10). The”

P. aeruginosa ATCC 27853 [8] = experiment: Time-kill studies and model fit, levofloxacin; type: cell-based, Pseudomonas aeruginosa; settings: for EC50: Pseudomonas aeruginosa
Description: An overnight culture of the isolate was diluted 30-fold with pre-warmed Ca-MHB and incubated further at 35 C until reaching late log phase growth. The bacterial suspension was diluted with Ca-MHB accordingly based on absorbance at 630 nm; 15 mL of the suspension was transferred to 50 mL sterile conical flasks each containing 1 mL of a drug solution at 16·the target concentration. The final concentration of the bacterial suspension in each flask at baseline was approximately 1×10^8 CFU/mL.
The high inoculum was used to simulate the bacterial load in a severe infection, e.g., nosocomial pneumonia. Furthermore, the high inoculum used would allow resistant sub-population(s) to be likely present at baseline. The experiment was conducted for 24 h in a shaker water bath set at 35° C. Serial samples (baseline, 0.5, 1, 2, 4, 8, 12, and 24 h) were obtained from each flask over 24 h to characterize the effect of various drug exposures on the total bacterial population.
Prior to culturing the bacteria quantitatively, the bacterial samples (0.5 mL) were centrifuged at 10,000 g for 15 min, and reconstituted with sterile normal saline to their original volumes in order to minimize drug carry-over effect. Total bacterial populations were quantified by spiral plating 10 serial dilutions of the samples (50 IL) onto Ca-MHA plates. The media plates were incubated in a humidified incubator (35° C. for 18-24 h, and the bacterial density from each sample was determined by CASBA-4 colony scanner/software (Spiral Biotech, Bethesda, Md.). The reliable limit of detection was 400 CFU/mL. The experiment was repeated once on a separate day.
The mathematical framework described Example 1 is used to predict whether a microbial population will be eradicated or survive under an antimicrobial pressure whose concentration over time follows a clinically realistic (time-periodic) profile. For absence of agent (placebo, C=0 Ig/mL) and by inspection in FIG. 13 it is determined that Nmax=10^9.4 CFU/mL. Using this value for Nmax standard nonlinear least squares (differential evolution of mathematica) is used to get a growth rate constant value Kg=0.22 h^−1.
It is assumed that Kg is the same for all bacterial sub-populations, owing to common basic physiology. For the highest agent concentration used (C=64 Ig/mL) there appears to be complete eradication of the entire microbial population after the third sample in time. Therefore, no experimental points beyond that are considered in the data fit. Further, it is assumed that the maximum kill rate, Kk, occurring at an antibiotic concentration high enough to saturate all bacterial target sites, is the same for all bacteria, namely Kk=Kb. […] The values of the remaining parameters are estimated using standard nonlinear least squares for concentrations C=0.5, . . . , 32 Ig/mL (Table 4).

[9] = strain MR1 (Placebo exposure, OprD−)
[10] = strain MR2 (Cmin/MIC 0.5, OprD− & Mex+)
[11] = strain MR3 (Cmin/MIC 1.7, OprD− & Mex+), read-out: MIC

SMILES: CC1(C)S[C@@H]2[C@H](NC(=O)C(C(=O)O)c3ccccc3)C(=O)N2[C@H]1C(=O)O (stereo partly shown) [CAR, carbenicillin]
- MIC ([1]; strain MR2 (Cmin/MIC 0.5, OprD− & Mex+), macrobroth method): 512 µg/mL (≈ 1350 µM)
- MIC ([1]; strain MR3 (Cmin/MIC 1.7, OprD− & Mex+), macrobroth method, read-out: MIC): 512 µg/mL (≈ 1350 µM)
- MIC ([1]; strain PA 27853, macrobroth method): 64 µg/mL (≈ 169 µM)

SMILES: CC(C)(O/N=C(\C(=O)N[C@@H]1C(=O)N2C(C(=O)[O-])=C(C[n+]3ccccc3)CS[C@H]12)c1csc(N)n1)C(=O)O [CAZ, ceftazidime]
- MIC [2, 9]: 1 µg/mL (≈ 1.83 µM)
- MIC [2, 10]: 2 µg/mL (≈ 3.66 µM)
- MIC [2, 11]: 4 µg/mL (≈ 7.32 µM)
- MIC ([2]; strain PA 27853): 1 µg/mL (≈ 1.83 µM)

SMILES: C[C@@H](O)[C@H]1C(=O)N2C(C(=O)O)=C(SCCN=CN)C[C@H]12 [IPM, imipenem]
- MIC [2, 9]: > 32 µg/mL
- MIC [2, 10]: > 32 µg/mL
- MIC [2, 11]: 32 µg/mL (≈ 107 µM)
- MIC ([2]; strain PA 27853): 3 µg/mL (≈ 10 µM)

SMILES: CCN1CCN(C(=O)N[C@@H](C(=O)N[C@@H]2C(=O)N3[C@@H]2SC(C)(C)[C@@H]3C(=O)O)c2ccccc2)C(=O)C1=O [PIP, piperacillin]
- MIC [2, 9]: 3 µg/mL (≈ 5.8 µM)
- MIC [2, 10]: 8 µg/mL (≈ 15.5 µM)
- MIC [2, 11]: 32 µg/mL (≈ 61.8 µM)
- MIC ([2]; strain PA 27853): 3 µg/mL (≈ 5.8 µM)

SMILES: NC[C@H]1O[C@H](O[C@H]2[C@H](O)[C@@H](O[C@H]3O[C@H](CO)[C@@H](O)[C@H](N)[C@H]3O)[C@H](N)C[C@@H]2N)[C@H](N)C[C@@H]1O [TOB, tobramycin]
- cross-resistance [3]: observed
- MIC [2, 9]: 0.5 µg/mL (≈ 1.07 µM)
- MIC [2, 10]: 0.5 µg/mL (≈ 1.07 µM)
- MIC [2, 11]: 0.5 µg/mL (≈ 1.07 µM)
- MIC ([2]; strain PA 27853): 0.5 µg/mL (≈ 1.07 µM)

SMILES: NCC[C@H](O)C(=O)N[C@@H]1C[C@H](N)[C@@H](O[C@H]2O[C@H](CN)[C@@H](O)[C@H](O)[C@H]2O)[C@H](O)[C@H]1O[C@H]1O[C@H](CO)[C@@H](O)[C@H](N)[C@H]1O [amikacin]
- MBC [4]: 8 µg/mL (≈ 13.7 µM)
- MIC [4]: 4 µg/mL (≈ 6.83 µM)
- H ([5]; AB BAA 747): 3.06
- Kk ([5]; AB BAA 747): 27.81 h⁻¹
- β ([5]; AB BAA 747): 50.09
- τ ([5]; AB BAA 747): 0.0265 L/mg/h
- EC50 ([5]; Acinetobacter baumannii, BAA747, AB BAA 747, read-out: C50k): 1.56 µg/mL (≈ 2.66 µM)
- concentrations with complete bacterial eradication ([5]; after 2 hours of drug exposure): > 16 mg/L
- stability of resistance ([3]; resistant isolates from sub-optimal dosing regimens): phenotypically stable

SMILES: CO/N=C(\C(=O)N[C@@H]1C(=O)N2C(C(=O)[O-])=C(C[N+]3(C)CCCC3)CS[C@H]12)c1csc(N)n1 [cefepime]
- cross-resistance [3]: not

SMILES: O=C(O)c1cn(C2CC2)c2cc(N3CCNCC3)c(F)cc2c1=O [ciprofloxacin]
- cross resistance, change in MIC ([6]; levofloxacin resistant isolates): ≥ 4 fold

SMILES: C[C@H]1COc2c(N3CCN(C)CC3)c(F)cc3c(=O)c(C(=O)O)cn1c23 [levofloxacin]
- MIC (P. aeruginosa ATCC 27853 [7]): 2 Ig/mL
- MIC [1]: 6 µg/mL (≈ 16.6 µM)
- EC50 (P. aeruginosa ATCC 27853 [8]; ATCC27853, read-out: C50): 0.86 µg/mL (≈ 2.38 µM)
- EC50 (P. aeruginosa ATCC 27853 [8]; ATCC27853, read-out: C50b): 39.4 µg/mL (≈ 109 µM)
- C50A (P. aeruginosa ATCC 27853 [8]; model fit): 0.45 µg/mL
- H (P. aeruginosa ATCC 27853 [8]; model fit): 1.7
- HA (P. aeruginosa ATCC 27853 [8]; model fit): 10
- Hb (P. aeruginosa ATCC 27853 [8]; model fit): 24
- increase in MIC compared to the parent strain ([6]; two random isolates from drug supplemented media plates): 16 fold
- MIC [2, 9]: 0.75 µg/mL (≈ 2.08 µM)
- MIC [2, 10]: 4 µg/mL (≈ 11.1 µM)
- MIC ([2]; strain PA 27853): 0.75 µg/mL (≈ 2.08 µM)
